According to patent US20150064221A1, “COMPOUNDS HAVING IMMUNOMUDULATOR ACTIVITY” (priority 2012, published 2015):
“Also recorded” adds a separate entry of the source.

Experiments:
[1] = system: various asynchronously growing cell lines (HeLa, Jurkat, RD, PBMCs, U937); assay: Cell viability (MTT assay, P1/Annexin V staining); format: cell-based; set-up: viability: dose or concentration left out as unconfirmed
Method: (A) Cell viability was measured via the MTT assay after 48 hours of treatment. (B) TNF-α levels were measured 48 hours post LPS (5 μg/ml) stimulation. (C) CD4 T cells were stimulated with either ConA (10 μg/ml) or anti-CD3/CD28 beads (10 μg/ml), and proliferation was measured via 3H-thymidine incorporation.
VGX-1027 was tested for whether its effects were cell-type-specific.

COX-1 = COX-1 (Homo sapiens, UniProt P23219); assay: COX-1 activity; format: biochemical
Method: (§1) The highest plasma concentrations generally occurred in 1-2 hours. […] The highest level of inhibition was ˜35% for 2C19 at a 30 μM concentration. […] Lastly, VGX-1027 is stable in human liver S9 fractions (with phase 1 and 2 cofactors) with t1/2>90 minutes, which indicates a low likelihood of metabolism in the liver.

[2] = system: Peritoneal macrophages (PM); assay: In vitro cytokine synthesis by peritoneal macrophages; format: cell-based, mice
Text: (§2) Peritoneal macrophages (PM) and splenic mononuclear cells (SMNC) were isolated from normal mice, cultured in nutrient medium and stimulated with LPS and/or ConA in the absence or presence of VGX-1027. […] VGX-1027 had no effect on MIF expression in either cell type, on proliferation of SMNC, and on IL-10 and Interferon (IFN) γ production by SMNC.

[3] = Stability in human liver S9 fractions; format: in vitro ADME; details: with phase 1 and 2 cofactors, read-out: t1/2 in human liver S9 fractions
Method: as §1

[4] = system: Thioglycollate-elicited macrophages; assay: TNF-α production of macrophages treated with TLR agonists; format: cell-based; details: 10 μg/ml, 48 hours
Method: (§3) (A) Thioglycollate-elicited macrophages (1×10^6/ml) were stimulated with either LPS (5 μg/ml), zymosan (ZYM, 50 μg/ml), MDP (25 μg/ml), or Poly(I:C) (50 μg/ml) in the presence or absence of VGX-1027 (10 μg/ml). TNF-α was measured 48 hours post treatment. (B) Relative phosphorylations of 1-κBα and p38 were measured at the indicated time points following stimulation with LPS (5 μg/ml). The y-axis is presented as fold change in comparison to the values obtained from LPS-treated cultures alone. * p<0.05.
Thioglycollate-elicited macrophages were treated with multiple TLR agonists for 48 hours. TNF-α production was measured. The following agonists were used to activate the various TLRs.

Oral absorption in mice = format: in vivo
Method: as §1

p38 and 1-kBα = assay: LPS-induced signalling pathway phosphorylation; format: cell-based
Method: as §3
(Jiang et al., J. Biol. Chem., (278) 16713-16719 (2003). In addition, it was observed that VGX-1027 inhibited LPS-induced phosphorylation of p38 and 1-kBα, indicating VGX-1027 inhibits a protein upstream of both the p38 and NF-κB, signaling pathways (FIG. 4b).

[5] = system: splenic mononuclear cells (SMNC); assay: In vitro proliferation and cytokine synthesis of splenic mononuclear cells; format: cell-based, mice
Text: as §2

STAT3 = assay: IL-6 induced STAT3 phosphorylation in CD4+ T cells (Western blot); format: cell-based; details: IL-6 20 ng/ml, 10 uM
Method: FIG. 17. Western blot (A) and relative densitometric analysis (B) of the levels of phospho-STAT3 in CD4+ T cells after stimulation with IL-6.
In vitro T-cell treatment: Naive, sorted CD4+ T cells were obtained from the University of Pennsylvania School of Medicine, Immunology Clinical Core, cultured in vitro with IL-6 (20 ng/ml) in the presence or absence of VGX1027 (10 uM) for 0, 30 min, 1 hr, 2 hrs and 5 hrs. At the end of the incubation period, cells were lysed for 30 min at 4° C. by using the Nonidet P-40 lysis buffer (Invitrogen) supplemented with a phosphatase inhibitor mixture (PhosSTOP) and a protease inhibitor mixture (Complete) as directed by the manufacturer (Roche Applied Science). Lysates were collected and spun at 10,000 rpm for 5 min at 4° C., and then, 50 ug of proteins were mixed with 2× sample buffer (Invitrogen) for subsequent 4-12% SDS-PAGE electrophoresis. Afterward, proteins were transferred to nitrocellulose using the iBlot Dry Blotting System (Invitrogen), immunodetection was performed with the SNAP i.d. Protein Detection System (Millipore) using specific p-STAT3 and STAT3 monoclonal antibodies (Cell Signaling), and the expressed proteins were visualized with HRP-conjugated goat antimouse IgG using an ECL detection system (Amersham Biosciences, Piscataway, N.J.).

splenic DCs = assay: LPS-induced maturation of dendritic cells in vivo; set-up: species or system mice; details: 0.5 mg/mouse 1 hour prior to LPS
Method: Mice were given VGX-1027 (0.5 mg/mouse) or a control, and then injected with LPS (25 μg/mouse) 1 hour later. At 3 hours post LPS administration, the mice were sacrificed, and (A) % of splenic DCs with CD86 and (B) MFI of CD86 from the CD86+ cells were measured.
To determine if this effect could be translated in vivo, mice were injected with LPS and the % of DCs that express CD86, which is a maturation marker, and the MR of CD86 on the positive cells were measured. The activation of DCs via CD86 expression, and not total cytokine levels, was measured in order to ascertain the direct affects of VGX-1027 on DCs. In vivo cytokine measurement could be confounded by other cytokine producing cells, such as macrophages. The mice were injected with LPS or LPS+VGX-1027 (VGX-1027 was given 1 hour prior to LPS administration) 3 hours post injection. The spleen from these mice were extracted and analyzed for DCs with CD86 expression. […] Moreover, the VGX1027-induced decrease in the percentage of cells that expressed CD86 and was associated with a decrease in the expression of CD86 per cell (FIG. 7b). Therefore, VGX-1027 inhibits LPS-induced production of Th17-promoting inflammatory cytokines by DCs in vitro and reduces LPS-induced maturation of DCs in vivo.

Metabolite monitoring = format: in vitro ADME; details: isoxazole ring disruption, single oxidation, single glucuronidation; any species
Method: as §1

Chain of COX-1 (P23219 24-599): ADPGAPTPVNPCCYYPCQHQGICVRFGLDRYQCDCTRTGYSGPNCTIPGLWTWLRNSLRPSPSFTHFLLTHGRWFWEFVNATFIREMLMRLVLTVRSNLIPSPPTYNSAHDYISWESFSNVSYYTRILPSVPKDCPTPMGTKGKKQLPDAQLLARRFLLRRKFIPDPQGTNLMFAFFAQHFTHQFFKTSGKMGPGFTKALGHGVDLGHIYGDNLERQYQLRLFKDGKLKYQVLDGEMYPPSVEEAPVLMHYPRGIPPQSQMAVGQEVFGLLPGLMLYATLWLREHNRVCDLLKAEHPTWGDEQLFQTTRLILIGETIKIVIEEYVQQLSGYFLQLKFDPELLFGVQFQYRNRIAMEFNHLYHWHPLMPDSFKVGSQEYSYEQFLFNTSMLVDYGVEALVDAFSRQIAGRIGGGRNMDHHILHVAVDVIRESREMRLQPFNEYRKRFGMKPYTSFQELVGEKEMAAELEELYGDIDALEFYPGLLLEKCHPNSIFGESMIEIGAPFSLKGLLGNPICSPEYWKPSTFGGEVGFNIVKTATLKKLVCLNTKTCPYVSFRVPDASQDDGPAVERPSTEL

Question: For `O=C(O)CC1CC(c2ccccc2)=NO1` (stereo not shown) [VGX-1027, 3-phenyl-4,5-dihydro-5-isoxazoleacetic acid], which viability ([1]; 48 hours, MTT) is on record?
Answer: Greater than 80%

Question: And the “toxicity to cell lines” value ([1]; MTT assay and P1/Annexin V staining, up to 100 mM)?
Answer: did not cause toxicity; also recorded: not toxic

Question: What about the “inhibition of COX-1 activity” value (COX-1) of the same molecule?
Answer: no significant inhibition

Question: And the “IL-1 β production” value [2]?
Answer: inhibited

Question: And the IL-10 production [2]?
Answer: inhibited

Question: And the MIF expression [2]?
Answer: no effect

Question: What about the TNF-α production ([2]; LPS and/or ConA stimulated) of the same molecule?
Answer: markedly inhibited

Question: What about the half-life [3] of the same molecule?
Answer: > 1.5 h

Question: What about the TNF-α production ([4]; LPS (5 μg/ml)) of the same molecule?
Answer: inhibited

Question: What about the TNF-α production ([4]; MDP (25 μg/ml)) of the same molecule?
Answer: inhibited

Question: What about the TNF-α production ([4]; ZYM (50 μg/ml)) of the same molecule?
Answer: inhibited

Question: And the TNF-α production ([4]; poly(I:C) (50 μg/ml))?
Answer: did not affect

Question: What about the oral absorption (Oral absorption in mice) of the same molecule?
Answer: rapidly absorbed

Question: What about the “time of highest plasma concentrations” value (Oral absorption in mice) of the same molecule?
Answer: 1 to 2 h

Question: And the ERK pathway (p38 and 1-kBα)?
Answer: up-regulation

Question: And the “phosphorylation of 1-kBα” value (p38 and 1-kBα; LPS-induced)?
Answer: inhibited

Question: What about the “phosphorylation of p38” value (p38 and 1-kBα; LPS-induced) of the same molecule?
Answer: inhibited

Question: And the IL-10 production [5]?
Answer: no effect

Question: What about the “Interferon (IFN) γ production” value [5] of the same molecule?
Answer: no effect

Question: What about the MIF expression [5] of the same molecule?
Answer: no effect

Question: And the proliferation [5]?
Answer: no effect

Question: What about the TNF-α production ([5]; LPS and/or ConA stimulated) of the same molecule?
Answer: markedly inhibited

Question: And the “magnitude of STAT3 phosphorilation” value (STAT3)?
Answer: overall reduction

Question: And the “time of maximum STAT3 activation after IL-6” value (STAT3)?
Answer: 1 h

Question: What about the “expression of CD86 per cell (MFI)” value (splenic DCs) of the same molecule?
Answer: decrease

Question: What about the “overall percentage of DCs in the spleen” value (splenic DCs) of the same molecule?
Answer: without affecting

Question: And the “% of DCs that expressed CD86” value (splenic DCs; 3 hours post LPS)?
Answer: reduced this percentage

Question: What about the “metabolite peaks for the 3 monitored masses” value (Metabolite monitoring) of the same molecule?
Answer: no metabolite peaks were observed
